Results from ChEMBL document CHEMBL1955722, “1,2,4-Oxadiazoles: a new class of anti-prostate cancer agents” (Bioorg Med Chem Lett, 2012).
pIC50: −log10 of the molar value.

What was measured:
[1] = test system: DU-145; assay: Cytotoxicity against human androgen-independent DU145 cells by MTT assay; assay type: functional, cell-based
[2] = test system: PC-3; assay: Cytotoxicity against human androgen-independent PC3 cells by MTT assay; assay type: functional, cell-based
[3] = test system: LNCaP; assay: Cytotoxicity against human androgen-dependent LNCAP cells by MTT assay; assay type: functional, cell-based
[4] = test system: DU-145; assay: Cytotoxicity against human androgen-independent DU145 cells at 1 uM by MTT assay; assay type: functional
[5] = test system: PC-3; assay: Cytotoxicity against human androgen-independent PC3 cells at 1 uM by MTT assay; assay type: functional
[6] = test system: LNCaP; assay: Cytotoxicity against human androgen-dependent LNCAP cells at 1 uM by MTT assay; assay type: functional
[7] = test system: MCF-10A; assay: Cytotoxicity against human MCF10A cells at 1 uM by MTT assay; assay type: cell-based
[8] = test system: DU-145; assay: Ratio of doxorubicin IC50 to compound IC50 for human androgen-independent DU145 cells

## CC(O)(CS(=O)(=O)c1ccc(F)cc1)C(=O)Nc1ccc(C#N)c(C(F)(F)F)c1 (centres undefined) [BICALUTAMIDE]
[1]
  pIC50: 4.19
[2]
  pIC50: 4.11
[3]
  pIC50: 5.77

## CC(O)(CSc1ccc(Cl)cc1)c1nc(-c2ccccc2)no1 (centres undefined)
[1]
  pIC50: 4.15

## CC(O)(CS(=O)(=O)c1ccc(Cl)cc1)c1nc(-c2ccc(F)c(Cl)c2)no1 (centres undefined)
[1]
  pIC50: 4.45

## CC(O)(CS(=O)(=O)c1ccc(Br)cc1)c1nc(-c2ccc(Cl)cc2)no1 (centres undefined)
[1]
  pIC50: < 4.00

## CC(O)(CS(=O)(=O)c1ccc(F)cc1)c1nc(-c2ccccc2)no1 (centres undefined)
[1]
  pIC50: < 4.00

## CC(O)(CS(=O)(=O)c1ccc(F)cc1)c1nc(-c2ccc(F)c(Cl)c2)no1 (centres undefined)
[1]
  pIC50: < 4.00

## CC(O)(CSc1ccccc1)c1nc(-c2ccc([N+](=O)[O-])c(C(F)(F)F)c2)no1 (centres undefined)
[1]
  pIC50: 5.52
[2]
  pIC50: 5.46
[3]
  pIC50: 5.01
[4]
  Activity: 49.62%
[5]
  Activity: 49.02%
[6]
  Activity: 31.1%
[7]
  Activity: 12.62%

## CC(O)(CSc1ccc(Cl)cc1)c1nc(-c2ccc([N+](=O)[O-])c(C(F)(F)F)c2)no1 (centres undefined)
[1]
  pIC50: 5.89
[2]
  pIC50: 5.52
[3]
  pIC50: < 4.00
[4]
  Activity: 48.93%
[5]
  Activity: 39.61%
[6]
  Activity: 28.93%
[7]
  Activity: 10.35%

## COc1cccc2c1C(=O)c1c(O)c3c(c(O)c1C2=O)C[C@@](O)(C(=O)CO)C[C@@H]3O[C@H]1C[C@H](N)[C@H](O)[C@H](C)O1 [DOXORUBICIN]
[1]
  pIC50: 5.24
[2]
  pIC50: 5.98

## CC(O)(CSc1ccc(F)cc1)c1nc(-c2ccc(Cl)cc2)no1 (centres undefined)
[1]
  pIC50: 4.44

## CC(O)(CSc1ccccc1)c1nc(-c2ccc(F)c(Cl)c2)no1 (centres undefined)
[1]
  pIC50: 5.26

## CC(O)(CSc1ccc(F)cc1)c1nc(-c2ccc(F)c(Cl)c2)no1 (centres undefined)
[1]
  pIC50: 5.54
[2]
  pIC50: 4.94
[3]
  pIC50: < 4.00
[4]
  Activity: 47.84%
[5]
  Activity: 40.77%
[6]
  Activity: 32.86%
[7]
  Activity: 12.44%

## CC(O)(CS(=O)(=O)c1ccc(Br)cc1)c1nc(-c2ccc(F)c(Cl)c2)no1 (centres undefined)
[1]
  pIC50: 4.12

## CC(O)(CS(=O)(=O)c1ccc(Cl)cc1)c1nc(-c2ccccc2)no1 (centres undefined)
[1]
  pIC50: < 4.00

## CC(O)(CSc1ccc(Br)cc1)c1nc(-c2ccc([N+](=O)[O-])c(C(F)(F)F)c2)no1 (centres undefined)
[1]
  pIC50: 5.80
[2]
  pIC50: 4.29
[3]
  pIC50: 4.40
[4]
  Activity: 48.71%
[5]
  Activity: 31.77%
[6]
  Activity: 27.45%
[7]
  Activity: 10.55%

## CC(O)(CS(=O)(=O)c1ccc(Br)cc1)c1nc(-c2ccccc2)no1 (centres undefined)
[1]
  pIC50: < 4.00

## CC(O)(CS(=O)(=O)c1ccc(Cl)cc1)c1nc(-c2ccc([N+](=O)[O-])c(C(F)(F)F)c2)no1 (centres undefined)
[1]
  pIC50: 4.04

## CC(O)(CS(=O)(=O)c1ccccc1)c1nc(-c2ccccc2)no1 (centres undefined)
[1]
  pIC50: < 4.00

## CC(O)(CSc1ccccc1)c1nc(-c2ccc(Cl)cc2)no1 (centres undefined)
[1]
  pIC50: 5.35

## CC(O)(CS(=O)(=O)c1ccc(F)cc1)c1nc(-c2ccc(Cl)cc2)no1 (centres undefined)
[1]
  pIC50: < 4.00

## CC(O)(CSc1ccccc1)c1nc(-c2ccccc2)no1 (centres undefined)
[1]
  pIC50: < 4.00

## CC(O)(CSc1ccc(Cl)cc1)c1nc(-c2ccc(F)c(Cl)c2)no1 (centres undefined)
[1]
  pIC50: 6.30
[2]
  pIC50: 5.00
[3]
  pIC50: 4.58
[4]
  Activity: 68.41%
[5]
  Activity: 44.39%
[6]
  Activity: 33.85%
[7]
  Activity: 10.62%
[8]
  Ratio IC50: 11.6

## CC(O)(CSc1ccc(Br)cc1)c1nc(-c2ccccc2)no1 (centres undefined)
[1]
  pIC50: < 4.00

## CC(O)(CSc1ccc(F)cc1)c1nc(-c2ccc([N+](=O)[O-])c(C(F)(F)F)c2)no1 (centres undefined)
[1]
  pIC50: 5.29
[2]
  pIC50: 5.26
[3]
  pIC50: 5.09
[4]
  Activity: 47.28%
[5]
  Activity: 46.89%
[6]
  Activity: 26.88%
[7]
  Activity: 11.35%

## CC(O)(CS(=O)(=O)c1ccc(F)cc1)c1nc(-c2ccc([N+](=O)[O-])c(C(F)(F)F)c2)no1 (centres undefined)
[1]
  pIC50: < 4.00

## CC(O)(CSc1ccc(Br)cc1)c1nc(-c2ccc(F)c(Cl)c2)no1 (centres undefined)
[1]
  pIC50: 5.06

## CC(O)(CS(=O)(=O)c1ccccc1)c1nc(-c2ccc([N+](=O)[O-])c(C(F)(F)F)c2)no1 (centres undefined)
[1]
  pIC50: < 4.00

## CC(O)(CSc1ccc(F)cc1)c1nc(-c2ccccc2)no1 (centres undefined)
[1]
  pIC50: < 4.00

## CC(O)(CSc1ccc(Cl)cc1)c1nc(-c2ccc(Cl)cc2)no1 (centres undefined)
[1]
  pIC50: 4.84

## CC(O)(CS(=O)(=O)c1ccc(Br)cc1)c1nc(-c2ccc([N+](=O)[O-])c(C(F)(F)F)c2)no1 (centres undefined)
[1]
  pIC50: < 4.00

## CC(O)(CS(=O)(=O)c1ccc(Cl)cc1)c1nc(-c2ccc(Cl)cc2)no1 (centres undefined)
[1]
  pIC50: < 4.00

## CC(O)(CSc1ccc(Br)cc1)c1nc(-c2ccc(Cl)cc2)no1 (centres undefined)
[1]
  pIC50: 5.19

## CC(O)(CS(=O)(=O)c1ccccc1)c1nc(-c2ccc(F)c(Cl)c2)no1 (centres undefined)
[1]
  pIC50: < 4.00

## CC(O)(CS(=O)(=O)c1ccccc1)c1nc(-c2ccc(Cl)cc2)no1 (centres undefined)
[1]
  pIC50: < 4.00
